Reference: patent US9464058B2 (Hoffmann-La Roche Inc., priority 2012, dated 2016)
pEC50: −log10 of the molar value.

How the values were obtained:
human CYP11B1 = target: T1, human CYP11B1 (Homo sapiens, UniProt P15538); assay: G-402 cellular enzyme assay, human CYP11B1 (cortisol release, HTRF); assay type: cell-based; conditions: G-402 cells expressing human CYP11B1; 1 μM Deoxycortisol; 16 h
T1 construct: expressed in transfected cells
T1 sequence (P15538 25-503): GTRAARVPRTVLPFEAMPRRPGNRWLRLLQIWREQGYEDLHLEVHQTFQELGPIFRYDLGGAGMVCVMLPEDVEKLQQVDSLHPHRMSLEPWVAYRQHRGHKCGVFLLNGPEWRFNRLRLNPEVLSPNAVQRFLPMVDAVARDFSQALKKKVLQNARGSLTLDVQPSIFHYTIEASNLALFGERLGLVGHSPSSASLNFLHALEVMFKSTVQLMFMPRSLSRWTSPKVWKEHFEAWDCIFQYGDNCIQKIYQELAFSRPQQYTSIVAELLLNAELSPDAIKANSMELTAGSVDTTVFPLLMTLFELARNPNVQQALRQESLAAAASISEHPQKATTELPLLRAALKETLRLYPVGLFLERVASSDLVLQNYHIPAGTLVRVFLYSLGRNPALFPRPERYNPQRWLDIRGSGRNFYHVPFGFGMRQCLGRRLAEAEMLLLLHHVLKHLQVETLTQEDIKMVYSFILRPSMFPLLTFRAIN
From the text: (§1) Herein we identified the use of the G-402 cell line as a host cell to ectopically express (transiently or stably) enzymes of the CYP11 family. Specifically we developed stable G-402 cells expressing ectopically human CYP11B1, human CYP11B2, human CYP11A1, cynomolgus CYP11B1 or cynomolgus CYP11B2 enzyme activity. Importantly, the identified cell line G-402 expresses co-factors (adrenodoxin and adrenodoxin reductase) important for the activity of the CYP11 family, and no relevant enzyme activity of the CYP11 family (in comparison to H295R cells) was detected in these cells. Therefore the G-402 cell line is uniquely suited as a host cell for the ectopic expression of enzymes from the CYP11 family.
(§2) G-402 cells can be obtained from ATCC(CRL-1440) and were originally derived from a renal leiomyoblastoma.
(§3) The expression plasmids contains the ORF for either human/cyno CYP11B1 or CYP11B2 under the control of a suitable promoter (CMV-promoter) and a suitable resistance marker (neomycin). Using standard techniques the expression plasmid is transfected into G-402 cells and these cells are then selected for expressing the given resistance markers. Individual cell-clones are then selected and assessed for displaying the desired enzymatic activity using 11-Deoxycorticosterone (Cyp11B2) or 11-Deoxycortisol (Cyp11B1) as a substrate.
(§4) G-402 cells expressing CYP11 constructs were established as described above and maintained in McCoy's 5a Medium Modified, ATCC Catalog No. 30-2007 containing 10% FCS and 400 μg/ml G418 (Geneticin) at 37° C. under an atmosphere of 5% CO2/95% air. Cellular enzyme assays were performed in DMEM/F12 medium containing 2.5% charcoal treated FCS and appropriate concentration of substrate (0.3-10 uM 11-Deoxycorticosterone, 11-Deoxycortisol or Corticosterone). For assaying enzymatic activity, cells were plated onto 96 well plates and incubated for 16 h. An aliquot of the supernatant is then transferred and analyzed for the concentration of the expected product (Aldosterone for CYP11B2; Cortisol for CYP11B1). The concentrations of these steroids can be determined using HTRF assays from CisBio analyzing either Aldosterone or Cortisol.
(§5) Inhibition of the release of produced steroids can be used as a measure of the respective enzyme inhibition by test compounds added during the cellular enzyme assay. The dose dependent inhibition of enzymatic activity by a compound is calculated by means of plotting added inhibitor concentrations (x-axes) vs. measured steroid/product level (y-axes). The inhibition is then calculated by fitting the following 4-parameter sigmoidal function (Morgan-Mercer-Flodin (MMF) model) to the raw data points using the least squares method:
(§6) [formula] wherein A is the maximum y value, B is the EC50 factor determined using XLFit, C is the minimum y value and D is the slope value.
(§7) EC50 values for compounds claimed herein were tested with the G402-based assay system described. Cyp11B2 enzyme activity was tested in presence of 1 μM Deoxycorticosterone and variable amounts of inhibitors; Cyp11B1 enzyme activity was tested in presence of 1 μM Deoxycortisol and variable amounts of inhibitors.

human CYP11B2 = target: T2, human CYP11B2 (Homo sapiens, UniProt P19099); assay: G-402 cellular enzyme assay, human CYP11B2 (aldosterone release, HTRF); assay type: cell-based; conditions: G-402 cells expressing human CYP11B2; 1 μM Deoxycorticosterone; 16 h
T2 construct: expressed in transfected cells
T2 sequence (P19099 25-503): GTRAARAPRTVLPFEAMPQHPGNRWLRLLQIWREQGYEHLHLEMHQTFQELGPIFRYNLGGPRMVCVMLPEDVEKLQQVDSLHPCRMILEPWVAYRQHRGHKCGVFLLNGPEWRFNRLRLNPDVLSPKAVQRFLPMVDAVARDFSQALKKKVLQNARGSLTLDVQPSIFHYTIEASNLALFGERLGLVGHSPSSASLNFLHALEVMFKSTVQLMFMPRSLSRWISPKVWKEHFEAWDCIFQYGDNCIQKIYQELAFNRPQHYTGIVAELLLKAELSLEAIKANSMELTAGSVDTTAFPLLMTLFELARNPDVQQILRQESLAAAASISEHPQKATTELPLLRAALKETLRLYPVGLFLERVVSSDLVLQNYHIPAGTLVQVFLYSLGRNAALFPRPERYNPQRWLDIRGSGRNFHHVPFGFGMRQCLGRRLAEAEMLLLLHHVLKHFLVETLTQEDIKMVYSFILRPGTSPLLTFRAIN
From the text: as §1, §2, §3, §4, §5, §6, §7

SMILES	pEC50 (human CYP11B1)	pEC50 (human CYP11B2)
Cn1cncc1C(=O)c1ccc(Cl)cc1 [Example 1, (4-Chloro-phenyl)-(3-methyl-3H-imidazol-4-yl)-methanone]	6.71	7.21
Cn1cncc1C(=O)c1ccc(C#N)cc1 [Example 2, 4-(3-Methyl-3H-imidazole-4-carbonyl)-benzonitrile]	6.43	7.94
Cn1cncc1C(=O)c1ccc(Cl)c(Cl)c1 [Example 3, (3,4-Dichloro-phenyl)-(3-methyl-3H-imidazol-4-yl)-methanone]	6.78	8.31
COc1ccc(C(=O)c2cncn2C)cc1 [Example 4, (4-Methoxy-phenyl)-(3-methyl-3H-imidazol-4-yl)-methanone]	5.46	6.93
CCn1cncc1C(=O)c1ccc(C#N)cc1 [Example 5, 4-(3-Ethyl-3H-imidazole-4-carbonyl)-benzonitrile]	7.33	8.59
CC(C)n1cncc1C(=O)c1ccc(C#N)cc1 [Example 6, 4-(3-Isopropyl-3H-imidazole-4-carbonyl)-benzonitrile]	8.35	9.10
CCn1cncc1C(=O)c1ccc(Cl)cc1 [Example 7, (4-Chloro-phenyl)-(3-ethyl-3H-imidazol-4-yl)-methanone]	7.18	8.36
Cn1cncc1C(=O)c1ccc(C#N)cc1F [Example 8, 3-Fluoro-4-(3-methyl-3H-imidazole-4-carbonyl)-benzonitrile]	5.60	7.01
Cn1cncc1C(=O)c1ccc(Cl)c(F)c1 [Example 9, (4-Chloro-3-fluoro-phenyl)-(3-methyl-3H-imidazol-4-yl)-methanone]	6.73	8.11
CC(C)n1cncc1C(=O)c1ccc(C#N)cc1F [Example 10, 3-Fluoro-4-(3-isopropyl-3H-imidazole-4-carbonyl)-benzonitrile]	7.15	7.97
Cn1cncc1C(=O)c1ccc(Cl)cc1Cl [Example 11, (2,4-Dichloro-phenyl)-(3-methyl-3H-imidazol-4-yl)-methanone]	5.74	6.67
CC(C)n1cncc1C(=O)c1cccc(Cl)c1 [Example 12, (3-Chloro-phenyl)-(3-isopropyl-3H-imidazol-4-yl)-methanone]	8.28	8.89
CC(C)n1cncc1C(=O)c1ccc(Cl)cc1 [Example 13, (4-Chloro-phenyl)-(3-isopropyl-3H-imidazol-4-yl)-methanone]	8.25	8.68
CC(C)n1cncc1C(=O)c1ccc(Cl)c(Cl)c1 [Example 14, (3,4-Dichloro-phenyl)-(3-isopropyl-3H-imidazol-4-yl)-methanone]	8.74	9.30
CCn1cncc1C(=O)c1ccc(Cl)c(Cl)c1 [Example 15, (3,4-Dichloro-phenyl)-(3-ethyl-3H-imidazol-4-yl)-methanone]	7.70	8.74
Cn1cncc1C(=O)c1ccc(C(C)(C)C)cc1 [Example 30, (4-tert-Butyl-phenyl)-(3-methyl-3H-imidazol-4-yl)-methanone]	5.01	–
Cn1cncc1C(=O)c1ccc(S(C)(=O)=O)cc1 [Example 47, (4-Methanesulfonyl-phenyl)-(3-methyl-3H-imidazol-4-yl)-methanone]	–	5.45
CC(=O)N(C)c1ccc(C(=O)c2cncn2C)cc1 [Example 55, N-Methyl-N-[4-(3-methyl-3H-imidazole-4-carbonyl)-phenyl]-acetamide]	–	6.03
Cn1cncc1C(=O)c1ccc(SC(F)(F)F)cc1 [Example 73, (3-Methyl-3H-imidazol-4-yl)-(4-trifluoromethylsulfanyl-phenyl)-methanone]	–	6.41
CN(C(=O)OC(C)(C)C)c1ccc(C(=O)c2cncn2C)cc1 [Example 85, Methyl-[4-(3-methyl-3H-imidazole-4-carbonyl)-phenyl]-carbamic acid tert-butyl ester]	4.90	–
